These results are taken from paper PMC11317636, “Convergent evolution in toxin detection and resistance provides evidence for conserved bacterial–fungal interactions” (Proceedings of the National Academy of Sciences of the …, 2024).

One experiment deals with T1, DnoP (PA4170) (Pseudomonas aeruginosa, UniProt A0A0H2ZG54).
T1 construct: gene PA14_09950; one replicate with C-terminal mCherry fusion purified from A. fumigatus
The experiment in a line: DTNB assay of residual free thiols at […] nm. The format is biochemical. Conditions: 40 µM TCEP-reduced substrate, 0.2 µM enzyme, 20 mM Tris-HCl pH 7.0, 100 mM NaCl, room temperature, 15 min.

For another experiment, the target named is T2, GliT (Aspergillus fumigatus, UniProt E9RAH5).
T2 construct: one replicate with C-terminal mCherry fusion purified from A. fumigatus (A1160 background)
T2 sequence (E9RAH5 whole entry, the tested form may be a part): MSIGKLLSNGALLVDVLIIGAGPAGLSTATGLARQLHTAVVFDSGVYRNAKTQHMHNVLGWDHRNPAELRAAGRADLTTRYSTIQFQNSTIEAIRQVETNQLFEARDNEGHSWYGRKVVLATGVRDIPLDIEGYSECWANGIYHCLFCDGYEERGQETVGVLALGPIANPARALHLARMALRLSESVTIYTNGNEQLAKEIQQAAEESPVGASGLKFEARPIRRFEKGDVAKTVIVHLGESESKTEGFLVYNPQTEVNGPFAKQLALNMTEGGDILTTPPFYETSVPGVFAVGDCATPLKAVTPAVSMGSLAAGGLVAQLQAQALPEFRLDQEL
The format is biochemical. Conditions: 40 µM TCEP-reduced substrate, 0.2 µM enzyme, 20 mM Tris-HCl pH 7.0, 100 mM NaCl, room temperature, 15 min.

T1 sequence (A0A0H2ZG54 entry or part of it): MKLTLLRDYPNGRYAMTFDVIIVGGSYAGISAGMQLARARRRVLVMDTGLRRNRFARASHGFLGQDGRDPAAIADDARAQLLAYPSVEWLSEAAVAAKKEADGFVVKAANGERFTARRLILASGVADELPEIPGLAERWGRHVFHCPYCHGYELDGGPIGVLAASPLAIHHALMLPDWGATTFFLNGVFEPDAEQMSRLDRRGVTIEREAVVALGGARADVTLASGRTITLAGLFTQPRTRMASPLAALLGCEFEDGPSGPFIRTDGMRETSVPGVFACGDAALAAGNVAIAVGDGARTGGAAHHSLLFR

On to `CN1C(=O)C2(S)CC3=CC=CC(O)C3N2C(=O)C1(S)CO` (centres unmarked) [compound 1, reduced gliotoxin], for which the “DTNB assay of residual free thiols at 412 nm” value on DnoP (PA4170) was “Recombinant PA4170 and GliT catalyzed disulfide oxidation of both gliotoxin and holomycin”; at GliT, “Recombinant PA4170 and GliT catalyzed disulfide oxidation of both gliotoxin and holomycin”.
